PubChem BioAssay AID2060615 (Molecular Pharmacology Branch, DTP, NCI, 2025)
Several values for one entry are separate records, joined by “and”; a condition that tells them apart may be missing. Equal entries are not always repeated.

Test system: 496974-208-R-J2-PDC complex spheroids, growth % test/control
Experiment: Anticancer human tumor 496974-208-R-J2-PDC patient-derived pancreatic carcinoma cell line growth inhibition [CLK]
Conditions: for viability, T/C: stronger effect = lower value
In short: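 Patient-derived tumor cells grown as complex spheroids with HUVEC endothelial cells and mesenchymal stem cells, treated with drug combinations. Concentrations descend in half-log steps from near clinical Cmax, or from 10 microM if Cmax unknown.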

[1] = curve of first compound, second compound 0.0316 µM
[2] = curve of first compound, second compound 0.1 µM
[3] = curve of first compound, second compound 0.316 µM
[4] = curve of first compound, second compound 1 µM
[5] = curve of first compound, second compound 3.16 µM
[6] = curve of first compound, second compound 10 µM
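Note: spheroids exposed to the drugs for 7 days before readout.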
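Throughout, for viability, T/C: 100% = DMSO vehicle control wells.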

Compound: C=CC(=O)Nc1cc(Nc2nccc(-c3cn(C)c4ccccc34)n2)c(OC)cc1N(C)CCN(C)C + CN1CCN(c2cc(C(=O)Nc3cc4cc(-c5cnn(C)c5)ccc4cn3)ccn2)CC1
- IC50 [1]: > 300 nM
- IC50 [2]: > 300 nM
- IC50 [3]: < 0.949 nM
- IC50 [4]: < 0.949 nM
- IC50 [5]: < 0.949 nM
- IC50 [6]: < 0.949 nM
- viability, T/C (second compound 0.0316 µM, first compound 0.000949 µM): 104%
- viability, T/C (second compound 0.0316 µM, first compound 0.003 µM): 100%
- viability, T/C (second compound 0.0316 µM, first compound 0.00949 µM): 94.9%
- viability, T/C (second compound 0.0316 µM, first compound 0.03 µM): 86.5%
- viability, T/C (second compound 0.0316 µM, first compound 0.0949 µM): 85.7%
- viability, T/C (second compound 0.0316 µM, first compound 0.3 µM): 60.6%
- viability, T/C (second compound 0.1 µM, first compound 0.000949 µM): 77.1%
- viability, T/C (second compound 0.1 µM, first compound 0.003 µM): 86.2%
- viability, T/C (second compound 0.1 µM, first compound 0.00949 µM): 80.8%
- viability, T/C (second compound 0.1 µM, first compound 0.03 µM): 74.3%
- viability, T/C (second compound 0.1 µM, first compound 0.0949 µM): 70.8%
- viability, T/C (second compound 0.1 µM, first compound 0.3 µM): 50%
- viability, T/C (second compound 0.316 µM, first compound 0.000949 µM): 6.91%
- viability, T/C (second compound 0.316 µM, first compound 0.003 µM): 7.98%
- viability, T/C (second compound 0.316 µM, first compound 0.00949 µM): 5.85%
- viability, T/C (second compound 0.316 µM, first compound 0.03 µM): 4.61%
- viability, T/C (second compound 0.316 µM, first compound 0.0949 µM): 6.12%
- viability, T/C (second compound 0.316 µM, first compound 0.3 µM): 4.42%
- viability, T/C (second compound 1 µM, first compound 0.000949 µM): 0.32%
- viability, T/C (second compound 1 µM, first compound 0.003 µM): 0.55%
- viability, T/C (second compound 1 µM, first compound 0.00949 µM): 1.29%
- viability, T/C (second compound 1 µM, first compound 0.03 µM): 0.51%
- viability, T/C (second compound 1 µM, first compound 0.0949 µM): 2.8%
- viability, T/C (second compound 1 µM, first compound 0.3 µM): 0.65%
- viability, T/C (second compound 3.16 µM, first compound 0.000949 µM): 0.42%
- viability, T/C (second compound 3.16 µM, first compound 0.003 µM): 1.96%
- viability, T/C (second compound 3.16 µM, first compound 0.00949 µM): 1.14%
- viability, T/C (second compound 3.16 µM, first compound 0.03 µM): 0.42%
- viability, T/C (second compound 3.16 µM, first compound 0.0949 µM): 2.24%
- viability, T/C (second compound 3.16 µM, first compound 0.3 µM): 1.33%
- viability, T/C (second compound 10 µM, first compound 0.000949 µM): 0.31%
- viability, T/C (second compound 10 µM, first compound 0.003 µM): 0.31%
- viability, T/C (second compound 10 µM, first compound 0.00949 µM): 0.31%
- viability, T/C (second compound 10 µM, first compound 0.03 µM): 0.85%
- viability, T/C (second compound 10 µM, first compound 0.0949 µM): 2.25%
- viability, T/C (second compound 10 µM, first compound 0.3 µM): 2.99%

Compound: NC(=O)C(=Cn1cnc(-c2cc(C(F)(F)F)cc(C(F)(F)F)c2)n1)c1cncnc1
- viability, T/C (compound 0.00949 µM): 97.8% and 78.4%
- viability, T/C (compound 0.03 µM): 71.3% and 68.7%
- viability, T/C (compound 0.0949 µM): 57.4% and 59.5%
- viability, T/C (compound 0.3 µM): 29.5% and 32%
- viability, T/C (compound 0.949 µM): 16% and 23.8%
- viability, T/C (compound 3 µM): 11.6% and 13.4%
- IC50 (curve of compound): 106 nM and 135 nM

Compound: COc1cccc2c1C(=O)c1c(O)c3c(c(O)c1C2=O)CC(O)(C(=O)CO)CC3OC1CC(N)C(O)C(C)O1 (stereo not drawn)
- viability, T/C (compound 0.0316 µM): 73.2% and 85.7%
- viability, T/C (compound 0.1 µM): 53.8% and 61.2%
- viability, T/C (compound 0.316 µM): 26% and 39.9%
- viability, T/C (compound 1 µM): 2.82% and 3.77%
- viability, T/C (compound 3.16 µM): 0.71% and 0.67%
- viability, T/C (compound 10 µM): 1.39% and 0.57%
- IC50 (curve of compound): 121 nM and 177 nM

Compound: Nc1ccn(C2OC(CO)C(O)C2(F)F)c(=O)n1 (stereo not drawn) + CN1CCN(c2cc(C(=O)Nc3cc4cc(-c5cnn(C)c5)ccc4cn3)ccn2)CC1
- IC50 [1]: 959 nM
- IC50 [2]: 259 nM
- IC50 [3]: < 31.6 nM
- IC50 [4]: < 31.6 nM
- IC50 [5]: < 31.6 nM
- IC50 [6]: < 31.6 nM
- viability, T/C (second compound 0.0316 µM, first compound 0.0316 µM): 90.8%
- viability, T/C (second compound 0.0316 µM, first compound 0.1 µM): 76.9%
- viability, T/C (second compound 0.0316 µM, first compound 0.316 µM): 62.3%
- viability, T/C (second compound 0.0316 µM, first compound 1 µM): 44%
- viability, T/C (second compound 0.0316 µM, first compound 3.16 µM): 48.2%
- viability, T/C (second compound 0.0316 µM, first compound 10 µM): 50%
- viability, T/C (second compound 0.1 µM, first compound 0.0316 µM): 76.3%
- viability, T/C (second compound 0.1 µM, first compound 0.1 µM): 57.8%
- viability, T/C (second compound 0.1 µM, first compound 0.316 µM): 50.3%
- viability, T/C (second compound 0.1 µM, first compound 1 µM): 40.6%
- viability, T/C (second compound 0.1 µM, first compound 3.16 µM): 38.6%
- viability, T/C (second compound 0.1 µM, first compound 10 µM): 38.5%
- viability, T/C (second compound 0.316 µM, first compound 0.0316 µM): 5.11%
- viability, T/C (second compound 0.316 µM, first compound 0.1 µM): 5.63%
- viability, T/C (second compound 0.316 µM, first compound 0.316 µM): 6.71%
- viability, T/C (second compound 0.316 µM, first compound 1 µM): 5.91%
- viability, T/C (second compound 0.316 µM, first compound 3.16 µM): 5.91%
- viability, T/C (second compound 0.316 µM, first compound 10 µM): 4.9%
- viability, T/C (second compound 1 µM, first compound 0.0316 µM): 0.42%
- viability, T/C (second compound 1 µM, first compound 0.1 µM): 0.5%
- viability, T/C (second compound 1 µM, first compound 0.316 µM): 1.35%
- viability, T/C (second compound 1 µM, first compound 1 µM): 0.4%
- viability, T/C (second compound 1 µM, first compound 3.16 µM): 2.61%
- viability, T/C (second compound 1 µM, first compound 10 µM): 0.41%
- viability, T/C (second compound 3.16 µM, first compound 0.0316 µM): 0.53%
- viability, T/C (second compound 3.16 µM, first compound 0.1 µM): 0.7%
- viability, T/C (second compound 3.16 µM, first compound 0.316 µM): 0.57%
- viability, T/C (second compound 3.16 µM, first compound 1 µM): 0.47%
- viability, T/C (second compound 3.16 µM, first compound 3.16 µM): 0.44%
- viability, T/C (second compound 3.16 µM, first compound 10 µM): 1.78%
- viability, T/C (second compound 10 µM, first compound 0.0316 µM): 0.28%
- viability, T/C (second compound 10 µM, first compound 0.1 µM): 1.23%
- viability, T/C (second compound 10 µM, first compound 0.316 µM): 1.72%
- viability, T/C (second compound 10 µM, first compound 1 µM): 0.25%
- viability, T/C (second compound 10 µM, first compound 3.16 µM): 2.65%
- viability, T/C (second compound 10 µM, first compound 10 µM): 0.29%
